US20220397564A1, “ENGINEERING SPATIAL-ORGANIZED CARDIAC ORGANOIDS FOR DEVELOPMENTAL TOXICITY TESTING” (priority 2021, published 2022)
Like-named read-outs stand apart in the source and are kept apart here.

Tests used:
[1] = system: hiPSC-based cardiac organoids; conditions: for concentration at which cardiac organoids/tissue failed to differentiate (cardiac differentiation abolished) / organoid formation / concentration with no contractile functions (stopped beating): human; for organoid formation: 100 μM
[2] = system: zebrafish embryos; conditions: for proportion of embryos with normal (D-looped) heart looping: across / at higher concentrations; for embryos expressing the GFP transgene: Tg(my17:GFP)
[3] = system: cardiac organoids (cTnT positive cells); assay: flow cytometry of cardiac differentiation efficiency (cTnT) of drug-treated organoids; format: cell-based, human; conditions: with increasing treatment concentration
Procedure: Cardiac organoids were dissociated using 0.25% Trypsin for 10-15 minutes. Cells were collected, centrifuged and washed with PBS. Cells were fixed and permeabilized with a mixture of 4% (vol/vol) paraformaldehyde and 0.2% (vol/vol) TritonX solution for 15 minutes. Cells were incubated with primary antibody cardiac troponin T (Thermofisher cat. no. MA5-12960) in a 1:250 dilution for 1 hour in PBS, and then incubated with AlexaFluor 546 secondary fluorophore for an additional hour. The cell suspension was washed, centrifuged and filtered through 35 μm mesh cell strainer. Flow cytometry was performed on the BDAccuriC6 at Flow Cytometry Core at Syracuse University.
Concentrations were chosen after evaluation of blood plasma concentrations reported for each drug from the FDA drug information database (accessdata.FDA.gov). Concentrations were chosen to be at or approximated by blood plasma concentrations, while accounting for drug solubility in water or DMSO, while also supplying a large range in order to detect potential toxicity. Drugs were diluted in the appropriate culture media at three concentrations each increasing by a factor of 10 with respective controls. […] Samples were terminated on Day 20 for motion tracking analysis and for fluorescence/confocal imaging to assess the developmental toxicity of specific drugs based on the organoid morphology and contractile physiology.

[4] = system: hiPSC-based cardiac organoids; assay: cardiac developmental toxicity assay on hiPSC-derived cardiac organoids (differentiation, contractile behavior, 3D morphology)

Row | SMILES | FWHM [1] | beat rate [1] | height [1] | concentration at which cardiac organoids/tissue failed to differentiate (cardiac differentiation abolished) [1] [µM] | developmental toxicity (cardiac looping) ([2]; zebrafish, in vivo) | developmental toxicity on zebrafish embryonic heart development (cardiac looping) ([2]; zebrafish, in vivo) | organoid formation / 3D organoid morphology [1] | further results
1 | CC1(C)S[C@@H]2[C@H](NC(=O)[C@H](N)c3ccc(O)cc3)C(=O)N2[C@H]1C(=O)O [Amoxicillin] | smaller | decreased | smaller | – | – | – | – | beat duration [1]: increased
2 | C[C@H]1c2cccc(O)c2C(=O)C2=C(O)[C@]3(O)C(=O)C(C(N)=O)=C(O)[C@@H](N(C)C)[C@@H]3[C@@H](O)[C@@H]21 [Doxycycline] | Significant toxicity | Significant toxicity | Significant toxicity | 100 | severe developmental toxic effects | moderate toxicity | – | beat duration [1]: Significant toxicity; contraction velocity [1]: Significant toxicity; organoid formation [1]: failed to create 3D organoids
3 | CN(C)CCOC(C)(c1ccccc1)c1ccccn1 (stereo not shown) [Doxylamine Succinate] | – | slower | – | – | – | – | no drug effects | effect on contractile functions (overall) [1]: prominent effects; proportion of embryos with normal (D-looped) heart looping ([2]; 48 hpf): considerable proportion; percentage of cells expressing cTnT [3]: did not affect
4 | CC1=C(/C=C/C(C)=C/C=C/C(C)=C\C(=O)O)C(C)(C)CCC1 [Isotretinoin, 13-cis-retinoic acid] | – | – | – | 1 | severe developmental toxic effects | severe defects | large organoids | embryos expressing the GFP transgene ([2]; zebrafish, in vivo, 48 hpf): 0%
5 | O=C([O-])[O-].[Li+].[Li+] [Lithium Carbonate] | – | – | – | – | – | – | – | organoid formation / 3D organoid morphology ([4]; all tested concentrations or not specified, vs controls): mild toxicity; effect on cardiac differentiation ([4]; concentration not specified): slight reduction; effect on contractile functions (overall) ([4]; concentration not specified, listed as lithium): did not affect; effect on contractile functions (overall) ([4]; concentration not specified, listed as lithium carbonate): no significant toxicity effects; FWHM ([4]; high / higher concentrations (thalidomide in b100: 100 μM)): moderate toxicity; developmental toxicity (cardiac looping) ([2]; 48 hpf, all concentrations): severe developmental toxic effects; developmental toxicity on zebrafish embryonic heart development (cardiac looping) ([2]; 48 hpf, concentration not specified): moderate toxicity
6 | O=C1NC(=O)C(c2ccccc2)(c2ccccc2)N1 [Phenytoin] | smaller | – | smaller | – | mild embryotoxic effects | mild developmental toxic effect | smaller cardiac organoids than controls, but still maintained structural integrity | concentration with no contractile functions (stopped beating) [1]: 100 µM
7 | CO[C@H]1/C=C/O[C@@]2(C)Oc3c(C)c(O)c4c(O)c(c(/C=N/N5CCN(C)CC5)c(O)c4c3C2=O)NC(=O)/C(C)=C\C=C\[C@H](C)[C@H](O)[C@@H](C)[C@@H](O)[C@@H](C)[C@H](OC(C)=O)[C@@H]1C [Rifampicin] | toxicity | toxicity | toxicity | 100 | mild embryotoxic effects | mild developmental toxic effect | – | contraction velocity [1]: toxicity; organoid formation [1]: severe developmental toxicity at a high concentration (100 μM) with no organoid formation
8 | O=C1CCC(N2C(=O)c3ccccc3C2=O)C(=O)N1 (stereo not shown) [Thalidomide] | – | high variability | – | – | very mild toxicity level | not as significant as what was observed in the organoid model | abnormal cardiac organoids | area ratio [1]: decrease; area ratio of cardiac muscle coverage [1]: less cardiac tissue coverage; proportion of embryos with normal (D-looped) heart looping ([2]; 48 hpf): did not notably decrease; percentage of cells expressing cTnT [3]: considerable reduction
9 | CC1=C(/C=C/C(C)=C/C=C/C(C)=C/C(=O)O)C(C)(C)CCC1 [Tretinoin, all-trans-retinoic acid] | – | – | – | 10 | severe developmental toxic effects | severe defects | – | effect on cardiac differentiation [1]: abolished all cardiac differentiation; concentration with no contractile functions (stopped beating) [1]: 10 µM; embryos expressing the GFP transgene ([2]; zebrafish, in vivo, 48 hpf): 0%
